Peptide text beside a SMILES is read from it. Bounds are passed on as bounds.

The target of one series is T1, OutS_L96A (Dickeya dadantii, UniProt Q01567, L96A).
T1 construct: made in house; host or cells: E. coli (periplasm)
T1 sequence (Q01567 21-133 L96A): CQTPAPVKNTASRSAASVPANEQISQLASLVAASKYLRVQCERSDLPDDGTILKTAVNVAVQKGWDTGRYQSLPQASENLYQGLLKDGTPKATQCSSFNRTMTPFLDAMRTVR
Briefly: Fluorescence quenching titration, secretin peptide binding to pilotin mutant L96A. The following applies: fluorescence at 340 nm, excitation 290 nm, 15°C, 1 µM pilotin. From the text:
(§1) The pET-20b(+) plasmid expressing non-lipidated OutS (residues 26 to 132) fused to N-terminal PelB signal peptide has been constructed previously at a manner as the sequence of mature non-lipidated OutS after cleavage by the signal peptidase LepB is: MDP^26VKNT etc. To fuse a C-terminal 6His tag to non-lipidated OutS, SalI site was introduced at the end of outS sequence by using the primer (5′-ctt gac gcc atg cgc acc gtc gac tga ggg gga agc aac tgc) and the reverse complementary one (mutated bases are underlined). Then, by SalI/XhoI digestion the sequence coding for non-lipidated OutS was fused with that coding for 6His. Mutants of OutS were made using Strategene QuikChange and confirmed by sequencing.
(§2) Fluorescence data were collected using a Jasco FP-6300 Spectrofluorometer. […] Emission spectra were recorded at 15°C in steps of 2 nm from 310 to 400 nm. The fluorescence signal at 340 nm was plotted to calculate K d. Pilotin spectra was measured at 1 µM. […]
(§3) The Kd was determined by fitting the following equation: […]
(§4) where [PS] is the concentration of the pilotin/secretin complex, [P0] is the total concentration of the pilotin (1 µM), [S0] is the total concentration of the secretin peptide, and Kd is the dissociation constant. The observed fluorescence signal is then given by: F = FPS[PS] + FP[P]; as there are no tryptophans in the secretin peptide. […]

In another series the target is T2, OutS_L100A (Dickeya dadantii, UniProt Q01567, L100A).
T2 construct: made in house; host or cells: E. coli (periplasm)
T2 sequence (Q01567 21-133 L100A): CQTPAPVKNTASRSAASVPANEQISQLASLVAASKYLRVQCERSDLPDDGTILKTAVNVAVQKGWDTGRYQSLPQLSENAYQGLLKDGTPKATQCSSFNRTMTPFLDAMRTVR
Briefly: Fluorescence quenching titration, secretin peptide binding to pilotin mutant L100A. The following applies: fluorescence at 340 nm, excitation 290 nm, 15°C, 1 µM pilotin.
Text: as §1, §2, §3, §4

Another series concerns the target T3, OutS_Q114A (Dickeya dadantii, UniProt Q01567, Q114A).
T3 construct: made in house; host or cells: E. coli (periplasm)
T3 sequence (Q01567 21-133 Q114A): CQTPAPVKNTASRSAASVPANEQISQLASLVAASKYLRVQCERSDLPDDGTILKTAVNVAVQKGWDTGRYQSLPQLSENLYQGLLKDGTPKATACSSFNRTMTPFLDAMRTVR
The series can be described thus: Fluorescence quenching titration, secretin peptide binding to pilotin mutant Q114A. The settings on record: fluorescence at 340 nm, excitation 290 nm, 15°C, 1 µM pilotin.
Text: as §1, §2, §3, §4

For a further series, the target named is T4, OutS_S49R (Dickeya dadantii, UniProt Q01567, S49R).
T4 construct: made in house; host or cells: E. coli (periplasm)
T4 sequence (Q01567 21-133 S49R): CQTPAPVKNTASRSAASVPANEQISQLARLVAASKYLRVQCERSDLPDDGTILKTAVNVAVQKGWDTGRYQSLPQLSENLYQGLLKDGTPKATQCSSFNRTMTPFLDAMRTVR
Briefly: Fluorescence quenching titration, secretin peptide binding to pilotin mutant S49R. The settings on record: fluorescence at 340 nm, excitation 290 nm, 15°C, 1 µM pilotin.
Text: as §1, §2, §3, §4

In the next series the test system is E. coli NM522 cells. Briefly: Membrane location by flotation sucrose gradient centrifugation. The settings on record: with pilotin OutS, immunoblot. In kind it is cell-based. The source says: (§5) Figure 4 In vivo determination of secretin interactions with pilotin. Removal of the extreme C-terminal region of the secretin results in mislocalization of the secretin to the inner membrane (A) Sequence of the C-terminus of Dickeya dadantii secretin (OutD) along with the secondary structure prediction for this region; the predicted three helices are marked “H”. The sequences of the three secretin deletion mutants (OutDΔC1 to OutDΔC3) and the C-terminal secretin peptides used are shown. (B) Stabilization of truncated derivatives of the secretin (OutD) by pilotin (OutS) in vivo. E. coli MC3 cells expressing an OutD derivative (indicated above) and either OutS (+) or empty pACT3 vector (−) were grown for 12 h at 30°C in LB medium and then analyzed by immunoblotting with OutD antibodies. In the same cultures, β-galactosidase activity was assessed to estimate expression of pspA-lacZ. An elevated level of pspA reflects mislocalization of the corresponding secretin derivative to the inner membrane. […] The whole membrane fraction from E. coli NM522 cells coexpressing the indicated secretin derivatives and pilotin was separated by flotation sucrose gradient centrifugation and analyzed by immunoblotting with OutD- antibodies or stained with Coomassie G-250 to detect the major porins, which reflect the position of the outer membrane. […]
A general note: In western blotting, separated proteins are transferred to a membrane and probed.

The subject of the next series is pspA-lacZ. Briefly: pspA-lacZ induction (β-galactosidase activity). It is filed as cell-based. The settings on record: E. coli MC3, 12 h at 30°C in LB.
Text: as §5

The next series has as its system inner membrane. The following applies: ref [21]; cited from earlier work. From the text: The type II secretion system spans both the inner and outer bacterial membranes, [18]. It consists of an inner membrane subcomplex, periplasmic pseudopilins and the outer membrane secretin [19]. There have been considerable recent advances in our understanding of the T2SS secretin. First the structure of the N-terminal periplasmic domains N0, N1, and N2 in complex with a nanobody was elucidated (PDB code 3EZJ) and secondly a cryo EM reconstruction of the secretin itself has been described. In the absence of pilotin the D. dadantii secretin (OutD) mislocates to the inner ...

As usually defined, the Kd is a measure of binding affinity in units of concentration. Lower therefore signals tighter binding. `CC[C@H](C)[C@H](NC(=O)[C@H](CO)NC(=O)[C@H](CO)NC(=O)[C@H](CCC(N)=O)NC(=O)[C@@H](NC(=O)[C@H](CCC(N)=O)NC(=O)[C@H](CCCNC(=N)N)NC(=O)[C@H](Cc1ccccc1)NC(=O)[C@@H](NC(=O)[C@H](Cc1ccc(O)cc1)NC(=O)[C@@H](N)[C@@H](C)O)[C@@H](C)O)C(C)C)C(=O)N[C@@H](CO)C(=O)N[C@@H](CC(=O)O)C(=O)N[C@@H](Cc1ccccc1)C(=O)N[C@@H](Cc1ccc(O)cc1)C(=O)N[C@@H](CCCCN)C(=O)N1CCC[C@H]1C(=O)N[C@@H](CCC(=O)O)C(=O)O` [18 residue secretin peptide] (H-TYTFRQVQSSISDFYKPE-OH): the dissociation constant (Kd) was 5300 ± 1200 nM at OutS_L96A, 2100 ± 500 nM on OutS_L100A, 1100 ± 350 nM on OutS_Q114A and more than 200000 nM on OutS_S49R.

B1: OutD: Dickeya dadantii secretin of the type II secretion system, UniProt Q01565 (protein, UniProt Q01565 28-710, looked up)
Secretin OutD: AEFSASFKGTDIQEFINTVSKNLNKTVIIDPTVRGTISVRSYDMMNEGQYYQFFLSVLDVYGFSVVPMDNGVLKVIRSKDAKSSSIPLANNEQPGIGDELVTRVVPLNNVAARDLAPLLRQLNDNAGAGTVVHYEPSNVLLMTGRAAVIKRLVDIVNTVDKTGDREMVTVPLTYASAEDVAKLVNDLNKSDEKNALPSTMLANVVADGRTNSVVVSGEENARQRAVEMIRQLDRKQVVQGGTKVIYLKYAKALDLIEVLAGNGTSGNRNSSSSNASRPSSPRSGSSSNSNSSSGSSGSSSGSSSSSSSSSSMGFGSAFGSTSSSGGRTITIQGKEVTVRAHDQTNSLIITAPPDIMRDLEQVINQLDIRRPQVLVEAIIAEIQDADGLNLGIQWANKRAGMTQFTNTGIPISTAVIGTDQFRSNGTLTTAYASALSSFNGVTAGFYRGNWSMLLTALSSDSKNDVLATPSIVTLDNMEATFNVGQEVPVLTGSQTTSADNIFNTVERKTVGIKLRVKPQINEGDSVLLQIEQEVSSVADSNSSTNSSLGVTFNTRTVNNAVMVTNGETVVVGGLLDKTSVESNDKVPLLGDIPWLGSLFRSKSQEVRKRNLMLFLRPTIIRDPGQFQEASINKYRSFNNEQQQQRGEGNGVLDNNTLRLSGGNTYTFRQVQSSISDFYKPEGR
On to B1, for which the “outer membrane location / targeting” value with E. coli NM522 cells is “promotes the outer membrane location”. Further, the “pspA (β-galactosidase activity)” value with pspA-lacZ (OutS: +) stood at 800; with pspA-lacZ (OutS: − (empty pACT3 vector)) it was 1100. Further, the “location of secretin in absence of pilotin” value with inner membrane is “mislocates to the inner membrane”.

These data come from paper PMC3276575, “Structural and Functional Insights into the Pilotin-Secretin Complex of the Type II Secretion System” (PLoS Pathogens, 2012).
